Experimental findings from US10961189B2, “Spiro-lactam NMDA receptor modulators and uses thereof” (Aptinyx Inc., priority 2016, dated 2021) are described below.

Like-named read-outs stand apart in the source and are kept apart here.

The term AUC(0-t) denotes exposure summed from dosing to a finite time, without extrapolation to infinity. Low readings indicate low exposure, high ones high exposure. As usually defined, the half-life is the time needed for the level to fall by half in the phase considered. The low end stands for fast loss, the high end for slow loss. The term Tmax denotes the time at which the peak concentration occurs. One may read the Cmax as the maximum level reached in the sampled fluid or tissue. Usually EC50 stands for the midpoint of the concentration-response curve.

One data set is described as follows: IV pharmacokinetics. It is filed as in vivo, Sprague Dawley rats. The following applies: rat, 2 mg/kg, normal saline (* in 5% NMP, 5% Solutol HS, 90% normal saline). The text has this: The table below summarizes the results of the IV pharmacokinetics.
The nature of data set [1]: oral pharmacokinetics (plasma, brain, CSF). It is filed as in vivo, Sprague Dawley rats. Particulars: rat, per os 10 mg/kg; for Tmax: normal saline (* in 5% NMP, 5% Solutol HS, 90% normal saline).
Description: In another experiment, Sprague Dawley rats were dosed per os using a normal saline formulation containing 10 mg/kg of the compounds identified in the table below (except for the compounds marked with an asterisk (“*”) that were delivered in 5% NMP, 5% Solutol® HS and 90% normal saline formulation). Plasma, brain, and CSF samples were analyzed at various time points over a 24 hour period.
In another data set the test system is rats. Kind of data set: positive emotional learning (PEL) test, 50-kHz ultrasonic vocalizations. The class given is in vivo, rat. Particulars: PO, dose .1 mg/kg, one hour after administration. As for the experimental part:
Experiments were conducted as described in Burgdorf et al., “The effect of selective breeding for differential rates of 50-kHz ultrasonic vocalizations on emotional behavior in rats,” Devel. Psychobiol., 51:34-46 (2009). Rat 50-kHz ultrasonic vocalization (hedonic USVs) is a validated model for the study of positive affective state and is best elicited by rough-and-tumble play.
The PEL assay measures the acquisition of positive (hedonic) 50-kHz ultrasonic vocalizations (USVs) to a social stimulus, heterospecific rough and tumble play stimulation. Heterospecific rough-and-tumble play stimulation was administered by the experimenter's right hand. One hour after administration of test compound or vehicle negative control (0.5% sodium carboxymethyl cellulose in […] sterile saline), animals received 3 min of heterospecific rough-and-tumble play that consisted of alternating 15 sec blocks of heterospecific play and 15 sec of no-stimulation. High frequency ultrasonic vocalizations (USVs) were recorded and analyzed by sonogram with Avasoft SASlab Pro (Germany) as previously described by Burgdorf et al., “Positive emotional learning is regulated in the medial prefrontal cortex by GluN2B-containing NMDA receptors,” Neuroscience, 192:515-523 (2011). Frequency modulated 50-kHz USVs that occurred during each of the no-stimulation periods were quantified to measure PEL. Animals were not habituated to play stimulation before testing. Positive emotional learning was measured during the conditioned stimulus (CS) trials preceding the tickle unconditioned stimulus (UCS) trials. Animals received 15 second trials consisting of 6 CS and 6 UCS trials each (3 min total).
The table below summarizes the findings. As each experiment includes its own vehicle group, an example (typical) vehicle score is shown. Max effect (mean number of 50 kHz USVs per 15 seconds) is reported as ^: <6.0; *: 6-10.9; **: 11-16.9; ***: 17-22.

Another data set has as its target T1, NMDAR2A (Homo sapiens, UniProt Q12879).
T1 construct: expressed in transfected cells; host or cells: HEK cells (membrane extract)
Briefly: [3H]MK-801 binding in NMDAR expressing HEK cell membranes (facilitation of NMDAR activation). The class given is biochemical. The following applies: 50 μM glutamate. In short, it runs like this:
(§1)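 HEK membranes (300 μg) expressing the NMDAR subunit were preincubated 15 min at 25 °C with 50 μM glutamate and compound ([…]−1×10^−7M), then with 0.3 μCi [3H]MK-801 for 15 min under nonequilibrium conditions and filtered. Baseline-subtracted DPM was expressed as % of 1 mM glycine, and EC50 and % maximal binding came from three-parameter curve fits.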

A further data set concerns the target T2, NMDAR2B (Homo sapiens, UniProt Q13224).
T2 construct: expressed in transfected cells; host or cells: HEK cells (membrane extract)
The data set is described as above. The class given is biochemical. The following applies: 50 μM glutamate; for EC50: read-out: B: log EC50 (converted). In short, it runs like this: as §1

A further data set relates to Sprague Dawley rats. Briefly: Bennett model of mechanical analgesia (sciatic nerve chronic constriction, paw withdrawal threshold).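 Note: log paw withdrawal threshold scaled from vehicle group mean (0%) to naive 15 g value (100%).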 It is filed as in vivo, rat. Particulars: 10 mg/kg PO. Here is the method: The Bennett model of mechanical analgesia is used to assess the analgesic effects of compounds as measured by paw withdrawal threshold. Bennett GJ, Xie YK, “A peripheral mononeuropathy in rat that produces disorders of pain sensation like those seen in man,” Pain 33:87-107, 1988. […] Vehicle animals receive the surgery and then receive vehicle rather than test compound. Animals were tested 1 hr, 24 h and 1 wk post-test compound or vehicle administration.
Male 2-3 month old Sprague Dawley rats were used. Harlan was the supplier for all studies. Rats were housed in Lucite cages with aspen wood chip bedding, maintained on a 12:12 light:dark cycle (lights on at 5 AM), and given ad libitum access to Purina lab chow (USA) and tap water throughout the study.
Rats were anesthetized using inhaled isoflurane (2.5%). Sciatic nerve chronic constriction nerve injury surgery was performed as previously described (Bennett and Xie, 1988). An incision (˜1.5 cm in length) was made with a scalpel blade dorsally through skin on the right hind limb, parallel and posterior to femur. Using a small pointed hemostat, the biceps femoris and gluteus superficialis muscles were separated. Using curved blunt forceps, the common sciatic nerve was isolated and exposed. For the mechanical analgesia studies, the whole sciatic nerve was ligated. Using hemostats/forceps and chromic gut (5-0), the nerve was loosely ligated with a square knot; 3 ligatures, 1 mm apart were placed on the nerve. […] Testing occurred approximately 2 weeks post-surgery.
During testing, rats were acclimated to the surface of a suspended wire mesh grid (1 cm×1 cm, with the wire being 0.3 cm in diameter) for 15-20 min. Starting from the smallest, each Von Frey filament was pressed perpendicularly to the plantar surface of the affected (ipsilateral) hind paw until slightly bent and then held for 6 second. If an obvious hind paw withdrawal or a flinching behavior immediately after the withdrawal of the filament was not observed, the next larger filament was used in the same manner. In case of a response, a lower filament was used. This was repeated until six responses were collected.
For all studies, animals were baselined prior to study start to test for allodynia (defined as a paw withdrawal threshold under 5). A subset of animals was tested with gabapentin (150 mg/kg, PO) to ensure at least 50% analgesia. Once it was confirmed animals were ready for study initiation, animals were balanced across groups. All study investigators were blind to treatment conditions. Animals were dosed with 0.1, 1 or 10 mg/kg of test compound via oral gavage (PO), control sets of animals were dosed with gabapentin (150 mg/kg, PO) or vehicle (0.5% Na-CMC in 0.9% sterile saline, PO). Testing occurred 1 h post-dosing with animals retested 24 hrs and 1 week post-dosing. The percent analgesia calculations for each animal were made using the following equation: % analgesia=[(log(x)−y)/((log (z)−y)]*100, where x=the paw withdrawal threshold for the drug-treated animal in grams, y=the average of the log(x) values for the vehicle treated group, and z=the paw withdrawal threshold for naïve animals in grams (historical value of 15 used).
The results are shown in the table below where the percentage of analgesia is measured at 1 hour, 24 hours, and 1 week after compound administration. Since each study had its own gabapentin control group, an example gabapentin control value is shown.

The mark [2] stands for this setting: 0.25 h, read-out: A: % maximal [3H]MK-801 binding relative to 1 mM glycine.

T2 sequence (Q13224 27-1484, species assumed, other chains not shown): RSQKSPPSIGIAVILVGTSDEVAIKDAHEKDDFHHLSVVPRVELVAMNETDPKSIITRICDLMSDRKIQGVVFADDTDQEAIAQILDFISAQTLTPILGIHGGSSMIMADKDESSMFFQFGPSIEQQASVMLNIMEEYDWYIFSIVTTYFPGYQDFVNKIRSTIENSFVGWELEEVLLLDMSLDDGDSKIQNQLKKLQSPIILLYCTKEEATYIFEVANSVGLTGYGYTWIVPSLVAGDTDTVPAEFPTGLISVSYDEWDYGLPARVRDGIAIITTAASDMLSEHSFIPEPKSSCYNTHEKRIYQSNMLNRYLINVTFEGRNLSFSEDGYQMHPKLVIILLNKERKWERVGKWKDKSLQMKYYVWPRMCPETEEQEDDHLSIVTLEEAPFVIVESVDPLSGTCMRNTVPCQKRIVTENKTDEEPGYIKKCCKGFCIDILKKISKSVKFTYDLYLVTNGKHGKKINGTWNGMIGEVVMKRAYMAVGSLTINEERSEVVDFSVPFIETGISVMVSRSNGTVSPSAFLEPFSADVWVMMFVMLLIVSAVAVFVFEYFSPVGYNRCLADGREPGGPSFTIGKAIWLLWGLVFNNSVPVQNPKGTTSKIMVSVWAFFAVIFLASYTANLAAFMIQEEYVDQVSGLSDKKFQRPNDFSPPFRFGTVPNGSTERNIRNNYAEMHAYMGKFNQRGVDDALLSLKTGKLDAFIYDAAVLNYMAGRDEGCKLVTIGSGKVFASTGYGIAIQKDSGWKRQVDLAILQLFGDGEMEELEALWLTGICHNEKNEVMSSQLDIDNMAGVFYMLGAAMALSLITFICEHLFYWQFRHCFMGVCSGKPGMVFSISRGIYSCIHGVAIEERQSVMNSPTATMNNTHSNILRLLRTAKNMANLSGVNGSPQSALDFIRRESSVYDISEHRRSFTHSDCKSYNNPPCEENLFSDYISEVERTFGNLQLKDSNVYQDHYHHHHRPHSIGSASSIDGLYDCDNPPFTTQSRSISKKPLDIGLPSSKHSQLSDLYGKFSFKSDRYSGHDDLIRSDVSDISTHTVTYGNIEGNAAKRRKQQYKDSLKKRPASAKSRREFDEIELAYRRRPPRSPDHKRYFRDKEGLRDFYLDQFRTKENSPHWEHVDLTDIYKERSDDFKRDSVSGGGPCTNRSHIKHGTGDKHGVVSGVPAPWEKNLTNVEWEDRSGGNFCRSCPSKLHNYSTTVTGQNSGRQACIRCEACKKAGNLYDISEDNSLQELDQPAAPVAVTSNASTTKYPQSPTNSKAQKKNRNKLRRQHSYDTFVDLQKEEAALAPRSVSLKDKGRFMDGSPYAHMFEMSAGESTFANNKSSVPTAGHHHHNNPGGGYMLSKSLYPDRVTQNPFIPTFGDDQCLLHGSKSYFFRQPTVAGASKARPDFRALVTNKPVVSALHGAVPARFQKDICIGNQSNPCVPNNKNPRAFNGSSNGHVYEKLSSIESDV
T1 sequence (Q12879 23-1464, species assumed, other chains not shown): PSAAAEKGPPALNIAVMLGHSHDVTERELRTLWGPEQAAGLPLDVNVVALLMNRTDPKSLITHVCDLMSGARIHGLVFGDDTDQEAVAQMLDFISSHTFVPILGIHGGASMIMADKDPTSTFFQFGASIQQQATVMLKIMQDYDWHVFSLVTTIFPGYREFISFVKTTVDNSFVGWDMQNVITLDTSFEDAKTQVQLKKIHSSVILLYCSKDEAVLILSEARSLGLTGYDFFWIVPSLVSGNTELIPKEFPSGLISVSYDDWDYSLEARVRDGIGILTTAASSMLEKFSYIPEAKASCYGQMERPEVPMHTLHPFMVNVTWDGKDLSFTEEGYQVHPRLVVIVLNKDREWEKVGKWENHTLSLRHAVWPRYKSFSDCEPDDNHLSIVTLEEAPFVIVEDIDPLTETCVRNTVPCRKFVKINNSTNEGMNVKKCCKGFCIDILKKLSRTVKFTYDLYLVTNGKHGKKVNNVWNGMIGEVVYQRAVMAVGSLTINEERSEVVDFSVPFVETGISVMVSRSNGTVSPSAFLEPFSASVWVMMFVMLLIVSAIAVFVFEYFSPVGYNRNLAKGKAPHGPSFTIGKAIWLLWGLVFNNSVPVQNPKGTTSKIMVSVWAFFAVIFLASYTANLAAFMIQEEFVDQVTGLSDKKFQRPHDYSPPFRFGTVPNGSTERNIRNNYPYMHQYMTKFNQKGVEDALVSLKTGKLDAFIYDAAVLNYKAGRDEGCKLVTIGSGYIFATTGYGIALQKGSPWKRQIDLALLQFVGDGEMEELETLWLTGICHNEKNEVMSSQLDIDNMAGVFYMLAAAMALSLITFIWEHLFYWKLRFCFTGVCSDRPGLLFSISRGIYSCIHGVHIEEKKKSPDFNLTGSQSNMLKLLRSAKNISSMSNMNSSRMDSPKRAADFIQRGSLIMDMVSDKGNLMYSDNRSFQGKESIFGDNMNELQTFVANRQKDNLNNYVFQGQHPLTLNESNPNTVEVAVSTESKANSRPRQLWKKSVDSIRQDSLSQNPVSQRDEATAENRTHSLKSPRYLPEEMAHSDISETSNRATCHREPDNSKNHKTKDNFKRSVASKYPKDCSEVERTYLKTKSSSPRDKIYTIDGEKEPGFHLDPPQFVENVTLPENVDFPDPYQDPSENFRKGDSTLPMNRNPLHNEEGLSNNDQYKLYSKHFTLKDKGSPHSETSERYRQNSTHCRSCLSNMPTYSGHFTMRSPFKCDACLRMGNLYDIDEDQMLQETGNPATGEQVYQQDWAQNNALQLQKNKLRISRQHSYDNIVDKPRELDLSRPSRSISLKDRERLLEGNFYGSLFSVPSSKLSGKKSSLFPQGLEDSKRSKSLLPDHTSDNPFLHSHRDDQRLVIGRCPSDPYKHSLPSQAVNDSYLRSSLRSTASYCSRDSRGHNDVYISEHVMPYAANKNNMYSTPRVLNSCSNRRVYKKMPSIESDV

Regarding `C[C@@H](O)[C@H](NC1CCC2(CC1)CNC2=O)C(N)=O` (single isomer, unassigned) [AQ], in the data set “IV pharmacokinetics” (Sprague-Dawley, in vivo, iv), the AUC(0-t) was found to be 2290 ng·h/mL and the half-life was 3.84 h. For the same molecule, the C0 in “IV pharmacokinetics” (Sprague-Dawley, in vivo, iv, read-out: C0) came out at 3990 ng/mL. In addition, the Vd in “IV pharmacokinetics” (Sprague-Dawley, in vivo, iv, read-out: Vss) was 1.22 L/kg. Further, in “IV pharmacokinetics” (intravenous 2 mg/kg), the CI is reported as 14.64 mL/min/kg. Besides, in data set [1], the “% F” value is given as 16%, the “CSF Cmax” value is 65.84 ng/mL and the Tmax was determined as 1 h. Further, the “Brain Cmax” value in data set [1] (brain) was 29.91 ng/mL. Besides, in data set [1] (plasma), the AUClast is 1805.63 ng·h/mL and the Cmax is given as 499.27 ng/mL. Besides, in the data set on rats, the “Max Effect (mean number of 50 kHz USVs per 15 seconds)” value was “** (**: 11-16.9)”. The “A: % maximal [3H]MK-801 binding relative to 1 mM glycine” value at NMDAR2A was “+ (<100%=+)”. For the same molecule, the concentration giving a half-maximal response (EC50) on NMDAR2A (read-out: B: log EC50 (converted)) is not below 1 nM. For the same molecule, on NMDAR2B, the “A: % maximal [3H]MK-801 binding relative to 1 mM glycine” value is “+ (<100%=+)” and the EC50 was less than 1 nM.

In the case of `C[C@@H](O)[C@@H](C(N)=O)N1CC2(CCC(F)(F)CC2)C1=O` [Compound AO, (2S,3R)-2-(7,7-difluoro-1-oxo-2-azaspiro[3.5]nonan-2-yl)-3-hydroxybutanamide], the “% analgesia” value amounted to 18.2% in the data set on Sprague Dawley rats (1 wk), 23.7% in the data set on Sprague Dawley rats (1 h) and 7.5% in the data set on Sprague Dawley rats (24 h). Besides, in data set [1] (Sprague-Dawley, plasma, po, 10 mg/kg, read-out: Tmax), the Tmax amounted to 1 h. Also, the Cmax in data set [1] (Sprague-Dawley, plasma, po, 10 mg/kg, plasma, read-out: Cmax) came out at 7310 ng/mL. Besides, the “CSF Cmax” value in data set [1] turned out to be 1676.3 ng/mL. In addition, the “Max Effect (mean number of 50 kHz USVs per 15 seconds)” value in the data set on rats is “* (*: 6-10.9)”. Moreover, the Emax at NMDAR2A (setting [2]) was 0%; on NMDAR2B (setting [2]), less than 100%. On NMDAR2B, the EC50 is less than 1 nM.
